Laboratory results published in patent publication US11707471B2, “ENPP1 inhibitors and their use for the treatment of cancer” (The Board of Trustees of the Leland Stanford Junior …, priority 2017, dated 2023).

System: 4T1 tumor
Assay: 4T1 tumor model: ENPP1 inhibition with IR, cGAMP and anti-CTLA-4
Format: in vivo, mouse
Conditions: 20 Gy IR then intratumoral 10 μg cGAMP on day 2, 4, 7

Nc1nc2c(ncn2[C@@H]2O[C@@H]3COP(=O)(O)O[C@H]4[C@@H](O)[C@H](n5cnc6c(N)ncnc65)O[C@@H]4COP(=O)(O)O[C@@H]2[C@@H]3O)c(=O)[nH]1 [cGAMP, cyclic guanosine monophosphate-adenosine monophosphate]
effect over IR treatment: had no effect over IR treatment
